SMILES strings stand for the structures. Some results are limits rather than exact numbers.

Our source for the IC50 values is patent publication US9029381B2, “Cyclopropyl amide derivatives” (Astrazeneca AB, priority 2007, dated 2015).

For assay [1], the target named is human histamine H3 receptors (Homo sapiens (Human), UniProt Q9Y5N1). Briefly: Histamine H3 SPA with the agonist radioligand [3H]-N-α-methylhistamine (hH3 binding). As to conditions: inhibition of [3H]-N-α-methylhistamine (1.4 nM) binding to CHO-K1 membranes expressing full-length human H3 (isoform 445). As to the method:
Histamine H3 SPA with the Agonist Radioligand [^3H]-N-α-Methylhistamine
The H3 binding assay was/can be used to evaluate the ability of at least one compound in accordance with formula I, Ia, Ib, and/or Ic to inhibit [^3H]-N-α-methylhistamine binding to CHO-K1 membranes expressing human histamine H3 receptors (full-length H3, the most prevalent brain isoform 445). In 200 μl 96-well SPA format, human H3 membranes (12.5 μg protein/well) and 1.4 nM [^3H]-N-α-methylhistamine were/can be incubated with at least one compound in accordance with formula I, Ia, Ib, and/or Ic for 1.5 hrs to determine percent effect with respect to total (1% DMSO) and non-specific binding (10 μM imetit). […] Single poke (SP) testing can be done in triplicate.
Membranes, prepared from CHO-K1 cells stably expressing the human histamine H3 receptor, can be obtained from ACS.
Tested formula I, Ia, Ib, and/or Ic compounds were/can be provided as solubilized samples in neat DMSO. Serial dilutions were/can be performed in DMSO.
Plates were/can be 96-well Unifilter GF/B (Perkin Elmer, 6005177). Plates were/can be read on a Perkin Elmer TopCount. CPM data was/can be used to analyze unless DPM data generated by a quench curve was/is required.
• 1. 1 mg/ml BSA was/can be added to assay buffer (AB) on day of assay. • 2. Amounts required for bead/membrane pool in AB were/can be calculated: “P”−need 17.1 ml/assay plate+10 ml PlateMate excess. Buffer volume was/can be split between beads and membranes to allow for polytroning of membranes prior to addition to beads. • a. […] A minimum of 15 minutes was/can be waited prior to adding membranes (See b. below). • b. Membranes (hH3 membranes from CHO cells containing recombinant human H3 receptors, 11.7 mg/ml): membranes were/can be removed from −80° C. and thawed in RT waterbath. (0.0702 mg/ml×P) mg of membranes were/can be resuspended in the remaining volume not used with beads above for 12.5 μg/well final and homogenized briefly at polytron speed 5.0. The homogenized membrane mixture was/can be combined with the beads and a minimum of 30 minutes was/can be waited prior to dispensing to plate. • 3. Formula I, Ia, Ib, and/or Ic compounds: For Single Poke, 2 μl mM of a compound in accordance with formula I, Ia, Ib, and/or Ic was/can be dispensed to Optiplates (triplicate plates) for final a concentration of 10 μM. […] Imetit (see below) was/can be used as a control. • 4. […] [^3H]-N-α-methylhistamine ([^3H]-NAMH): A solution in AB at 14 nM, 10× final concentration of 1.4 nM was/can be prepared. 5 μl samples were/can be calculated in quadruplicate on the 13 counter. If concentration was/is 12-14.5 nM, no adjustment was/is may be required. (For IC50s, use final concentration on calculation tab of ABase template.) Assay • 1. […] 2 μl of the formula I, Ia, Ib, and/or Ic compound dilution was/can be mixed and then transferred into assay plates. DMSO was/can be removed and 2 μl of 100 μM Imetit was/can be added to the wells. • 3. 178 μl bead/membrane mixture was/can be dispensed into the assay plate. • 4. 20 μl [^3H]-NAMH was/can be added with Rapid Plate. The assay plate was/can be sealed and incubated for 1.5 hr on RT shaker at speed ˜6.5. • 5. The assay plate was/can be subsequently centrifuged at 1000 rpm for 10 minutes. • 6. The count was/can be performed on TopCount using one of the 3H SPA H3 Quench programs.
The DPM data was/can be analyzed when tSIS was/is less than that associated with 70% of full scale on the quench curve (tSIS<25%). Otherwise, CPM data was/is used.
(§1) The IC50 and nH can be determined by fitting the data to model 205 in XLfit: y=A+((B−A)/(1+((C/x)^D)). Guanosine 5′-O-(3-[^35S]thio)triphosphate [GTPγS] Binding Assay

Assay [2] deals with human Histamine H3 receptor (hH3R) (Homo sapiens (Human), UniProt Q9Y5N1). The experiment in a line: Guanosine 5'-O-(3-[35S]thio)triphosphate [GTPγS] binding assay. It is filed as biochemical. The following applies: antagonist mode vs (R)-α-methyl histamine 30 nM; membranes from CHO cells expressing hH3R. As to the method: as §1
human Histamine H3 receptor (hH3R), sequence (Q9Y5N1 whole entry): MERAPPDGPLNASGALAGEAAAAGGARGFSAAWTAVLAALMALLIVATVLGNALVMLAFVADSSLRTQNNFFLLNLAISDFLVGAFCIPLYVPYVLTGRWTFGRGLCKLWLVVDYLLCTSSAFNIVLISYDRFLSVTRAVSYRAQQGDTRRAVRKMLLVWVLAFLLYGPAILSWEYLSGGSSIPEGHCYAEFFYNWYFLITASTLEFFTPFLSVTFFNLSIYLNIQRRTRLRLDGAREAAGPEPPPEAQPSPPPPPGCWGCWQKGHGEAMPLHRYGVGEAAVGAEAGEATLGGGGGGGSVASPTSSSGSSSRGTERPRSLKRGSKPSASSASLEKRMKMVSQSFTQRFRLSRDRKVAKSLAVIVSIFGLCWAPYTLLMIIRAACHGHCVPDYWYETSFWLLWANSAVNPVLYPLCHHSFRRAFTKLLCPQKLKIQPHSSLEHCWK
A GTPγS binding assay can be used to investigate antagonist properties of compounds in CHO cells (Chinese Hamster Ovary) transfected with human Histamine H3 receptor (hH3R). Membranes from CHO cells expressing hH3R (10 μg/well) are diluted in GTPγS assay buffer (20 mM Hepes, 10 mM MgCl2, 100 mM NaCl, pH 7.4) and preincubated with saponine (3 μg/ml), GDP (10 μM) and PVT-WGA SPA beads (125 μg/well) (Amersham) for 30 minutes. To determine antagonist activity, (R)-α-methyl histamine (30 nM) is added in 96 well SPA plate with [^35S]GTPγS (0.2 nM) and various concentration of H3R antagonists. The GTPγS binding assay is started with addition of the mixture membrane/saponine/GDP and incubated for 90 minutes at room temperature. The amount of bound [^35S]GTPγS is determined by using the MicroBeta Trilux counter (PerkinElmer). The percentage of [^35S]GTPγS bound in each sample is calculated as a percentage of that bound control sample incubated in absence of H3 antagonist. Duplicate determinations are obtained for each concentration, and the data are analyzed using ExcelFit4 to obtain the IC50.
Background: GTPγS resists hydrolysis and so accumulates on activated G proteins.

human histamine H3 receptors, sequence (Q9Y5N1 whole entry, canonical isoform): as the sequence (Q9Y5N1 whole entry) above

Broadly, the IC50 is the concentration that gives 50% inhibition. High values mean weaker potency, low ones greater potency. Regarding `O=C([C@H]1C[C@@H]1c1ccccc1)N1CCN(C2CCCCC2)CC1` (relative stereo) [Example 2, trans-(4-Cyclohexylpiperazin-1-yl)-(2-phenyl-cyclopropyl)methanone], the IC50 in assay [1] amounted to 105 nM. In the case of `O=C([C@H]1C[C@@H]1c1ccccc1)N1CCN(C2CCCCCC2)CC1` (relative stereo) [Example 3, trans-(4-Cycloheptylpiperazin-1-yl)-(2-phenylcyclopropyl)methanone], in assay [1], the IC50 turned out to be 4160 nM. Against the preceding molecule, the IC50 is about 40-fold higher. Molecule `O=C([C@H]1C[C@@H]1c1ccccc1)N1CCN(C2CCC2)CC1` (relative stereo) [Example 4, trans-(4-Cyclobutylpiperazin-1-yl)-(2-phenylcyclopropyl)methanone] had an IC50 in assay [1] of 6.4 nM. As for `O=C([C@H]1C[C@@H]1c1ccccc1)N1CCN(C2CC2)CC1` (relative stereo) [Example 5, trans-(4-Cyclopropylpiperazin-1-yl)-(2-phenylcyclopropyl)methanone], the IC50 in assay [1] amounted to 44.7 nM. With `O=C([C@H]1C[C@@H]1c1ccccc1)N1CCN(C2CCCC2)CC1` (relative stereo) [Example 6, trans-(4-Cyclopentylpiperazin-1-yl)-(2-phenylcyclopropyl)methanone], the IC50 in assay [1] worked out at 14 nM. This IC50 is about 3.2-fold lower than that of the molecule before. Take `O=C([C@H]1C[C@@H]1c1ccccc1)N1CCCN(C2CCC2)CC1` (relative stereo) [Example 8, trans-(4-Cyclobutyl-1,4-diazepan-1-yl)-(2-phenylcyclopropyl)methanone]: the IC50 in assay [1] came to 7.56 nM. For `CC(C)(C)N1CCN(C(=O)[C@H]2C[C@@H]2c2ccccc2)CC1` (relative stereo) [Example 9, trans-(4-tert-Butylpiperazin-1-yl)-(2-phenylcyclopropyl)methanone], the IC50 in assay [1] is 45.3 nM. This IC50 is about 6-fold higher than that of the molecule before. Still for that read-out and setting: the figure for `O=C([C@H]1C[C@@H]1c1ccc(Br)cc1)N1CCN(C2CCC2)CC1` (relative stereo) [Example 13, trans-[2-(4-Bromophenyl)cyclopropyl]-(4-cyclobutylpiperazin-1-yl)methanone] is 13.3 nM; for `CN1CCN(c2ccc([C@H]3C[C@@H]3C(=O)N3CCN(C4CCC4)CC3)cc2)C1=O` (relative stereo) [Example 16, trans-1-{4-[2-(4-Cyclobutylpiperazine-1-carbonyl)cyclopropyl]phenyl}-3-methylimidazolidin-2-one] it is 441 nM; for `CS(=O)(=O)Nc1ccc([C@H]2C[C@@H]2C(=O)N2CCN(C3CCC3)CC2)cc1` (relative stereo) [Example 18, trans-N-{4-[2-(4-Cyclobutylpiperazine-1-carbonyl)cyclopropyl]phenyl}methane-sulfonamide] it is 62.5 nM. On the same count and under the same terms, the figure for `O=C([C@H]1C[C@@H]1c1ccc(N2CCCC2)cc1)N1CCN(C2CCC2)CC1` (relative stereo) [Example 19, trans-(4-cyclobutylpiperazin-1-yl) {-2-[4-(pyrrolidin-1-yl)phenyl]cyclopropyl}methanone] is 351 nM; for `O=C([C@H]1C[C@@H]1c1ccc(C(F)(F)F)nc1)N1CCN(C2CCC2)CC1` (relative stereo) [Example 26, trans-(4-Cyclobutylpiperazin-1-yl)(2-(6-(trifluoromethyl)pyridin-3-yl)cyclopropyl)methanone] it is 88.3 nM; for `O=C([C@@H]1C[C@H]1c1ccc(F)cc1)N1CCN(C2CCC2)CC1` (relative stereo) [Example 27, trans-(4-Cyclobutylpiperazin-1-yl)-[2-(4-fluorophenyl)cyclopropyl]methanone] it is 7.3 nM. `O=C([C@@H]1C[C@H]1c1cccc(Br)c1)N1CCN(C2CCC2)CC1` (relative stereo) [Example 28, trans-[2-(3-Bromophenyl)cyclopropyl]-(4-cyclobutylpiperazin-1-yl)methanone]: the IC50 in assay [1] came to 1.37 nM.

In assay [1], `N#Cc1cccc([C@@H]2C[C@H]2C(=O)N2CCN(C3CCC3)CC2)c1` (relative stereo) [Example 29, trans-3-[2-(4-cyclobutylpiperazine-1-carbonyl)cyclopropyl]benzonitrile] had a 50% inhibitory concentration (IC50) of 0.834 nM. `CS(=O)(=O)Nc1cccc([C@@H]2C[C@H]2C(=O)N2CCN(C3CCC3)CC2)c1` (relative stereo) [Example 30, trans-N-{3-[2-(4-Cyclobutylpiperazine-1-carbonyl)cyclopropyl]phenyl}methanesulfonamide] returned an IC50 in assay [2] of 8.59 nM. That is a single-digit nanomolar value. On the same count and under the same terms, the figure for `NC(=O)c1cccc([C@@H]2C[C@H]2C(=O)N2CCN(C3CCC3)CC2)c1` (single isomer, unassigned; enantiomer 1) [Example 36, 3-((trans)-2-(4-cyclobutylpiperazine-1-carbonyl)cyclopropyl)benzamide, enantiomer 1] is 6.19 nM; for `O=C([C@@H]1C[C@H]1c1cccc(N2CCCC2=O)c1)N1CCN(C2CCC2)CC1` (single isomer, unassigned; enantiomer 1) [Example 38, 1-(3-((trans)-2-(4-cyclobutylpiperazine-1-carbonyl)cyclopropyl)phenyl)pyrrolidin-2-one, enantiomer 1] it is 11.6 nM; for `O=C([C@@H]1C[C@H]1c1cccc(N2CCCCC2=O)c1)N1CCN(C2CCC2)CC1` (single isomer, unassigned; enantiomer 1) [Example 40, 1-(3-((trans)-2-(4-cyclobutylpiperazine-1-carbonyl)cyclopropyl)phenyl)piperidin-2-one, enantiomer 1] it is 18.2 nM. Still for that read-out and setting: the figure for `NC(=O)c1ccc([C@@H]2C[C@H]2C(=O)N2CCN(C3CCC3)CC2)cc1` (single isomer, unassigned; enantiomer 1) [Example 43, 4-((trans)-2-(4-cyclobutylpiperazine-1-carbonyl)cyclopropyl)benzamide, enantiomer 1] is 3.81 nM; for `NC(=O)c1cccc([C@@H]2C[C@H]2C(=O)N2CCN(C3CCC3)CC2)c1` (single isomer, unassigned; enantiomer 2) [Example 37, 3-((trans)-2-(4-cyclobutylpiperazine-1-Carbonyl)cyclopropyl)benzamide, enantiomer 2] it is greater than 1050 nM. Still for that read-out and setting: the figure for `O=C([C@@H]1C[C@H]1c1cccc(N2CCCC2=O)c1)N1CCN(C2CCC2)CC1` (single isomer, unassigned; enantiomer 2) [Example 39, 1-(3-((trans)-2-(4-cyclobutylpiperazine-1-carbonyl)cyclopropyl)phenyl)pyrrolidin-2-one, enantiomer 2] is greater than 1800 nM.
